Assay results taken from patent US11351173B2, “Substituted pyrrolo[1,2-a]pyrimidines and their use in the treatment of medical disorders” (Bial—R&D Investments, S.A., priority 2014, dated 2022).
In brackets after ≈: the same amount, converted by molar mass.

Legend:
[1] = Compound solubility in water; conditions: for solubility: Compound Solubility in Water
[2] = target: T1, glucocerebrosidase (Gcase) (Homo sapiens, UniProt P04062); assay: Glucocerebrosidase (Gcase) activation assay, 4-methylumbelliferyl-beta-D-glucopyranoside substrate, fluorescence readout; type: biochemical; conditions: for activation at 0.1 µM / Percent Gcase Activation, 0.1 μM Test Compound: test compound at 0.1 μM; for activation at 0.1 µM: read-out: Percent Gcase Activation, 0.1 μM Test Compound; for activation at 1 µM / Percent Gcase Activation, 1 μM Test Compound: test compound at 1.0 μM; for activation at 1 µM: read-out: Percent Gcase Activation, 1 μM Test Compound
T1 construct: micellar solution containing 10 nM GCase and 100 nM saposin C
T1 sequence (P04062 40-536): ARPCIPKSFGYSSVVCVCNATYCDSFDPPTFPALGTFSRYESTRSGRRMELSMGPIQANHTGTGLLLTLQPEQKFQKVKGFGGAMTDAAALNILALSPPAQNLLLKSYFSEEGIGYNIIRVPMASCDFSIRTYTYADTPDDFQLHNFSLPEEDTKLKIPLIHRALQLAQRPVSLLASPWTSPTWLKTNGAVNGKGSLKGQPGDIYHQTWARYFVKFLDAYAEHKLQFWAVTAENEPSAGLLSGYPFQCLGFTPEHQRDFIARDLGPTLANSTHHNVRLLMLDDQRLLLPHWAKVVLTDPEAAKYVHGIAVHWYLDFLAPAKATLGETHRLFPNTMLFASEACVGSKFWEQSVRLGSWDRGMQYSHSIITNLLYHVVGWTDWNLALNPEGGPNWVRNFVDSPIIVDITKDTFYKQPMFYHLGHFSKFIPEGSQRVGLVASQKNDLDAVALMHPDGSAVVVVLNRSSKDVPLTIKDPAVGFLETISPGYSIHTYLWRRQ
Description: The ability of exemplary compounds to activate glucocerebrosidase (Gcase) was measured.
A 484 μL aliquot of a 1.0 mg/mL solution of phosphatidylserine (PS) (Sigma P7769) in chloroform was evaporated under a stream of nitrogen for 1 hour. The lipid film was dissolved over 4 minutes of vigorous vortexing in 40 mL of 176 mM K2HPO4/50 mM citric acid (pH 4.7) containing 7.5 μL of triton X-100, resulting in a mixed micellar preparation with a composition of 0.32 mM triton and 0.37 mol % PS. 4-Methylumbelliferyl-beta-D-glucopyranoside (ACROS-337025000) was dissolved in the micellar solution to a final concentration of 2 mM for use as the reaction substrate.
Test compounds were diluted to the desired concentrations with dimethylsulfoxide (DMSO) from 10 mM stocks, and 0.41 μL of the DMSO compound mixture was added to 100 μL of micellar solution containing 10 nM GCase and 100 nM saposin C (Enzo ALX-201-262-C050). Pre-incubation was allowed to occur for 30 minutes at room temperature, after which the reaction was initiated by combining 25 μL of substrate solution with 25 μL of compound/GCase/saposin mixture. The reaction proceeded for 15 minutes at room temperature and was stopped by adding 150 μL of 1M glycine, pH 12.5. The endpoint of the reaction was monitored by measuring fluorescence intensity (excitation: 365 nm; emission: 440 nm) on a SpectraMax i3 instrument (Molecular Devices). Test compounds were screened at 1.0 and 0.1 μM final concentration, and subsequent 8-point dose response curves were obtained using 3-fold dilutions from a maximum final concentration of 5 μM.

Compound	solubility ([1]; water)	activation at 0.1 µM [2]	activation at 1 µM [2]	also measured
C#Cc1cccc(C(C)(C)NC(=O)c2ccn3c(COC)cc(COC)nc23)c1 [III-157]	2.6 µg/mL (≈ 6.64 µM)	> 20%	> 60%	–
COCc1cc(C(C)C)nc2c(C(=O)NC3(C)CCCc4ncncc43)ccn12 (centres unmarked) [III-31]	–	< 10%	< 30%	–
Cc1cc(C)n2ccc(C(=O)NC3CCc4nc(C)sc4C3)c2n1 (centres unmarked) [III-111]	30.6 µg/mL (≈ 89.9 µM)	< 10%	< 30%	–
Cc1cc(C)n2ccc(C(=O)NC3CCC(Oc4cc(C)on4)C3)c2n1 (centres unmarked) [III-243]	–	< 10%	–	–
CCCCO[C@H]1C2CCC1C[C@@H](NC(=O)c1ccn3c(C)cc(C)nc13)C2 [III-185]	3.1 µg/mL (≈ 8.39 µM)	> 20%	> 60%	–
Cc1cc(C)n2ccc(C(=O)NC3CCC4OCOC4C3)c2n1 (centres unmarked) [III-229]	–	< 10%	< 30%	solubility ([1]; water, in water): 28.5 µg/mL (≈ 90.4 µM)
Cc1cc(C)n2ccc(C(=O)Nc3ccc4c(c3)C(n3oc(C)cc3=O)CC4)c2n1 (centres unmarked) [III-97]	–	< 10%	30 to 60%	–
Cc1cc(C)n2ccc(C(=O)Nc3ccc(Cl)c(-c4cnco4)c3)c2n1 [III-214]	–	> 20%	> 60%	solubility ([1]; water, in water): 0.01 µg/mL (≈ 0.0273 µM)
Cc1cc(C)n2ccc(C(=O)Nc3ccc(C)c(-c4ncco4)c3)c2n1 [III-149]	< 1.5 µg/mL	> 20%	> 60%	–
Cc1cc(C(F)(F)F)nc2c(C(=O)NC3(C)CCCc4ncncc43)ccn12 (centres unmarked) [III-250]	–	< 10%	< 30%	–
Cc1cc(C)n2ccc(C(=O)NC3CCC(c4ncco4)CC3)c2n1 (centres unmarked) [III-246]	–	–	–	Compound Solubility in Water ([1]; in water): 20.3 µg/mL; Percent Gcase Activation, 0.1 μM Test Compound [2]: * (less than 10% Gcase activation); Percent Gcase Activation, 1 μM Test Compound [2]: + (less than 30% Gcase activation)
Cc1cc(C)n2ccc(C(=O)NC3(C)CCOc4ccc(F)c(F)c43)c2n1 (centres unmarked) [III-173]	0.06 µg/mL (≈ 0.162 µM)	10 to 20%	> 60%	–
COc1cc(-c2cnco2)ccc1NC(=O)c1ccn2c(C)cc(C)nc12 [III-110]	0.4 µg/mL (≈ 1.1 µM)	> 20%	> 60%	–
CCCCCOc1ccc(NC(=O)c2ccn3c(C)cc(C)nc23)cc1 [III-273]	–	–	–	solubility ([1]; water, in water): 0.005 µg/mL (≈ 0.0142 µM); Percent Gcase Activation, 0.1 μM Test Compound [2]: *** (greater than 20% Gcase activation); Percent Gcase Activation, 1 μM Test Compound [2]: +++ (Gcase activation greater than 60%)
C#CCCCO[C@H]1CC[C@H](NC(=O)c2ccn3c(C)cc(C)nc23)CC1 [III-194]	4.5 µg/mL (≈ 12.7 µM)	10 to 20%	> 60%	–
Cc1cc(C)n2ccc(C(=O)Nc3ccc(C)c(-c4ncco4)c3)c2n1 [III-14]	–	–	–	Compound Solubility in Water ([1]; water): <1.5 µg/mL; Percent Gcase Activation, 0.1 μM Test Compound [2]: *** (greater than 20% Gcase activation); Percent Gcase Activation, 1 μM Test Compound [2]: +++ (Gcase activation greater than 60%)
Cc1ccnc2c(C(=O)NC3(C)CCOc4c(F)cccc43)ccn12 (centres unmarked) [III-258]	–	< 10%	> 60%	solubility ([1]; water, in water): 7.6 µg/mL (≈ 22.4 µM)
CCCCCO[C@H]1CC[C@@H](NC(=O)c2ccn3c(C)cc(C)nc23)C1 [III-179]	12.3 µg/mL (≈ 35.8 µM)	< 10%	> 60%	–
CCCCO[C@H]1CC[C@H](NC(=O)c2ccn3c(C(F)F)cc(COC)nc23)CC1 [III-35]	11.7 µg/mL (≈ 28.6 µM)	> 20%	> 60%	–
COc1cc(C)nc2c(C(=O)Nc3ccc(-c4cocn4)cc3)ccn12 [III-51]	–	10 to 20%	< 30%	–
Cc1cc(C)n2ccc(C(=O)NC3CCC4(CCOCC4)CC3)c2n1 [III-140]	–	< 10%	< 30%	–
Cc1cc(C)n2ccc(C(=O)Nc3ccc(N4CCCCC4)cc3)c2n1 [III-281]	–	–	–	solubility ([1]; water, in water): < 0.1 µg/mL
Cc1cc(C)n2ccc(C(=O)NC3CCC(Oc4cc(C)on4)C3)c2n1 (centres unmarked) [III-244]	–	–	–	Percent Gcase Activation, 1 μM Test Compound [2]: +++ (Gcase activation greater than 60%)
CCCOC1CC(CNC(=O)c2ccn3c(C)cc(C)nc23)C1 (centres unmarked) [III-239]	–	< 10%	< 30%	–
COCC#Cc1ccc(NC(=O)c2ccn3c(C)cc(C)nc23)cn1 [III-282]	–	–	–	solubility ([1]; water, in water): 0.7 µg/mL (≈ 2.09 µM)
Cc1cc(C)n2ccc(C(=O)Nc3ccc4c(c3)OCO4)c2n1 [III-280]	–	–	–	solubility ([1]; water, in water): 0.2 µg/mL (≈ 0.647 µM)
Cc1cc(C)n2ccc(C(=O)NC3(C)CCCc4ncncc43)c2n1 (centres unmarked) [III-175]	–	< 10%	< 30%	–
Cc1cc(C)n2ccc(C(=O)N[C@@H](C)c3ccc(F)cc3)c2n1 [III-78]	–	> 20%	> 60%	–

Second part, led by results:

solubility ([1]; water)	activation at 0.1 µM [2]	activation at 1 µM [2]	Compound	also measured
–	< 10%	30 to 60%	Cc1cc(C)n2ccc(C(=O)NC3CC=C(c4ncco4)CC3)c2n1 (centres unmarked) [III-247]	solubility ([1]; water, in water): 27.1 µg/mL (≈ 80.6 µM)
–	> 20%	> 60%	Cc1cc(C)n2ccc(C(=O)NC3CCCCc4ccccc43)c2n1 (centres unmarked) [III-226]	solubility ([1]; water, in water): 1.6 µg/mL (≈ 4.8 µM)
–	< 10%	< 30%	COCc1cc(C(C)C)n2ccc(C(=O)NC3(C)CCCc4ncncc43)c2n1 (centres unmarked) [III-32]	–
0.3 µg/mL (≈ 0.828 µM)	> 20%	> 60%	COCc1cc(C)n2ccc(C(=O)Nc3ccc(-c4cocn4)cc3)c2n1 [III-50]	–
0.4 µg/mL (≈ 1.14 µM)	> 20%	> 60%	COCc1cc(C)n2ccc(C(=O)N[C@H]3CCCc4ccccc43)c2n1 [III-42]	–
29.9 µg/mL (≈ 99.2 µM)	< 10%	< 30%	COC1CCCCC1NC(=O)c1ccn2c(C)cc(C)nc12 (centres unmarked) [III-98]	–
–	10 to 20%	> 60%	COC1CC(NC(=O)c2ccn3c(C)cc(C)nc23)c2ccccc21 (centres unmarked) [III-285]	solubility ([1]; water, in water): 23.8 µg/mL (≈ 71 µM)
–	> 20%	> 60%	Cc1cc(C)n2ccc(C(=O)NC3CCOc4ccc(F)cc43)c2n1 (centres unmarked) [III-225]	solubility ([1]; water, in water): 1.8 µg/mL (≈ 5.3 µM)
–	> 20%	> 60%	Cc1cc(C)n2ccc(C(=O)N[C@@H](C)c3ccccc3F)c2n1 [III-77]	–
16.2 µg/mL (≈ 50.6 µM)	< 10%	< 30%	Cc1cc(C)n2ccc(C(=O)NC3CCCc4cnccc43)c2n1 (centres unmarked) [III-151]	–
–	> 20%	> 60%	Cc1cc(C)n2ccc(C(=O)Nc3cccc4c3CCC4)c2n1 [III-220]	solubility ([1]; water, in water): 0.2 µg/mL (≈ 0.655 µM)
2.5 µg/mL (≈ 6.84 µM)	< 10%	< 30%	[2H]C1(NC(=O)c2ccn3c(C)cc(NC(C)=O)nc23)CCOc2ccccc21 (centres unmarked) [III-163]	–
0.3 µg/mL (≈ 0.866 µM)	> 20%	> 60%	CNc1cc(C)n2ccc(C(=O)NC3c4ccccc4C4CC3C4)c2n1 (centres unmarked) [III-70]	–
9.2 µg/mL (≈ 23.3 µM)	< 10%	30 to 60%	COCCOc1ccc2c(c1)C(NC(=O)c1ccn3c(C)cc(C)nc13)CCO2 (centres unmarked) [III-170]	–
–	10 to 20%	> 60%	COC1CCC(NC(=O)c2ccn3c(C)cc(C)nc23)c2ccccc21 (centres unmarked) [III-212]	solubility ([1]; water, in water): 13.6 µg/mL (≈ 38.9 µM)
–	10 to 20%	> 60%	Cc1cc(C)n2ccc(C(=O)NC(C)(C)c3ccccc3Cl)c2n1 [III-79]	–
–	> 20%	> 60%	Cc1cc(C)n2ccc(C(=O)NC3CCCC(Oc4cccs4)C3)c2n1 (centres unmarked) [III-191]	–
